Assay results taken from US7112333B1, “T cell epitopes of ryegrass pollen allergen” (Heska Corporation, priority 1994, dated 2006).

System: Lol p V reactive T Cells
Assay: T cell proliferation (tritiated thymidine) of Lol p V-primed T cell lines from grass-allergic patients
Type: cell-based, human
From the text: As discussed in Example 2, human T cell stimulating activity can be tested by culturing T cells obtained from an individual sensitive to Lol p V allergen, (i.e., an individual who has an IgE mediated immune response to Lol p V allergen) with a peptide derived from the allergen and determining whether proliferation of T cells occurs in response to the peptide as measured, e.g., by cellular uptake of tritiated thymidine. Stimulation indices for responses by T cells to peptides can be calculated as the maximum CPM in response to a peptide divided by the control CPM. A stimulation index (S.I.) equal to or greater than two times the background level is considered “positive”. Positive results are used to calculate the mean stimulation index for each peptide for the group of patients tested. In FIGS. 4 and 5 the mean T cell stimulation index is indicated above the bar. Preferred peptides of this invention comprise at least one T cell epitope and have a mean T cell stimulation index of greater than or equal to 2.0. […]
In addition, preferred peptides have a positivity index (P.I.) of at least about 60, more preferably about 100, more preferably at least about 200 and most preferably at least about 300. The positivity index for a peptide is determined by multiplying the mean T cell stimulation index by the percent of individuals, in a population of individuals sensitive to ryegrass pollen (e.g., preferably a population of at least 15 individuals, more preferably a population of at least 30 individuals or more), who have a T cell stimulation index to such peptide of at least 2.0. […]
In FIG. 5, the bar represents the cumulative rank of the peptide response in the group of patients tested as described in Example 2. To determine the cumulative rank, the 5 peptides with the highest S.I. in each individual were determined and assigned a numerical rank in descending order, with 5 representing the strongest response. […]
This amount of priming antigen was determined to be optimal for the activation of T cells from most grass-allergic patients. […]

## LPIX-20: synthetic overlapping peptide derived from Lol p V, sequence in FIG. 2 (AYETYKFIPSLEAAVKQAYA; Lolium perenne)
19 patients, 5 peptides with highest S.I. per individual ranked, ranks summed, FIG. 5
  ranked sum (cumulative rank of the peptide response): highest ranked sum

## rFel d I (Chain I): recombinant Fel d I chain I, control antigen in T cell assay [reference compound]
One allergic patient, results not shown
  T cell proliferative response of one patient: not

## LPIX-5: synthetic overlapping peptide derived from Lol p V, sequence in FIG. 2 (GFKAAVAAAANAPPADKFKI; Lolium perenne)
Group of 19 patients tested, FIG. 4
  percent of positive responses (patients with S.I. of at least 2): 26.3%
